# Experimental data as given in PubChem BioAssay (NCI).
#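 In this assay, cells in 96-well plates receive the compound at five concentrations for 48 hours. Endpoints are linearly interpolated between the surrounding concentrations. The concentration for 50% growth inhibition is given as GI50. TGI marks complete inhibition of growth.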
# What was measured:
# Assay in all cases: NCI-60 cell line screen, 48 h
# [1] = test system: 786-0 renal
# [2] = test system: A498 renal
# [3] = test system: A549 NSCLC
# [4] = test system: ACHN renal
# [5] = test system: BT-549 breast
# [6] = test system: CAKI-1 renal
# [7] = test system: CCRF-CEM leukemia
# [8] = test system: COLO 205 colon
# [9] = test system: DU-145 prostate
# [10] = test system: EKVX NSCLC
# [11] = test system: HCC-2998 colon
# [12] = test system: HCT-116 colon
# [13] = test system: HCT-15 colon
# [14] = test system: HL-60(TB) leukemia
# [15] = test system: HOP-62 NSCLC
# [16] = test system: HOP-92 NSCLC
# [17] = test system: HS 578T breast
# [18] = test system: HT29 colon
# [19] = test system: IGROV1 ovarian
# [20] = test system: K-562 leukemia
# [21] = test system: KM12 colon
# [22] = test system: LOX IMVI melanoma
# [23] = test system: M14 melanoma
# [24] = test system: MALME-3M melanoma
# [25] = test system: MCF7 breast
# [26] = test system: MDA-MB-231 breast
# [27] = test system: MDA-MB-435
# [28] = test system: MDA-MB-468 breast
# [29] = test system: MOLT-4 leukemia
# [30] = test system: NCI-H226 lung
# [31] = test system: NCI-H23 lung
# [32] = test system: NCI-H460 lung
# [33] = test system: NCI-H522 lung
# [34] = test system: NCI/ADR-RES ovarian
# [35] = test system: OVCAR-3 ovarian
# [36] = test system: OVCAR-4 ovarian
# [37] = test system: OVCAR-5 ovarian
# [38] = test system: OVCAR-8 ovarian
# [39] = test system: PC-3 prostate
# [40] = test system: RPMI-8226 leukemia
# [41] = test system: RXF 393 renal
# [42] = test system: SF-268 CNS
# [43] = test system: SF-295 CNS
# [44] = test system: SF-539 CNS
# [45] = test system: SK-MEL-2 melanoma
# [46] = test system: SK-MEL-28 melanoma
# [47] = test system: SK-MEL-5 melanoma
# [48] = test system: SK-OV-3 ovarian
# [49] = test system: SN12C renal
# [50] = test system: SNB-19 CNS
# [51] = test system: SNB-75 CNS
# [52] = test system: SR leukemia
# [53] = test system: SW-620 colon
# [54] = test system: T-47D breast
# [55] = test system: TK-10 renal
# [56] = test system: U251 CNS
# [57] = test system: UACC-257 melanoma
# [58] = test system: UACC-62 melanoma
# [59] = test system: UO-31 renal
compound,measurement,setting,value
COc1sc(/C=N/NC(=O)c2[nH]c3ccc(Br)cc3c2-c2ccccc2)cc1Cl,GI50,[1],2.78 µM
same,TGI,[1],41.9 µM
same,GI50,[2],11.1 µM
same,TGI,[2],53.7 µM
same,GI50,[3],2.64 µM
same,TGI,[3],> 100 µM
same,GI50,[4],2.38 µM
same,TGI,[4],> 100 µM
same,GI50,[5],3.72 µM
same,TGI,[5],8.48 µM
same,GI50,[6],0.798 µM
same,TGI,[6],94.6 µM
same,GI50,[7],3.09 µM
same,TGI,[7],> 100 µM
same,GI50,[8],0.294 µM
same,TGI,[8],0.728 µM
same,GI50,[9],3.23 µM
same,TGI,[9],32.5 µM
same,GI50,[10],4.49 µM
same,TGI,[10],> 100 µM
same,GI50,[11],3.74 µM
same,TGI,[11],> 100 µM
same,GI50,[12],1.74 µM
same,TGI,[12],10.1 µM
same,GI50,[13],2.96 µM
same,TGI,[13],> 100 µM
same,GI50,[14],1.52 µM
same,TGI,[14],5.23 µM
same,GI50,[15],1 µM
same,TGI,[15],13.1 µM
same,GI50,[16],9.72 µM
same,TGI,[16],> 100 µM
same,GI50,[17],1.73 µM
same,TGI,[17],44.4 µM
same,GI50,[18],1.07 µM
same,TGI,[18],7.46 µM
same,GI50,[19],3.05 µM
same,TGI,[19],30.7 µM
same,GI50,[20],0.502 µM
same,TGI,[20],> 100 µM
same,GI50,[21],2.79 µM
same,TGI,[21],> 100 µM
same,GI50,[22],1.61 µM
same,TGI,[22],40.7 µM
same,GI50,[23],2.12 µM
same,TGI,[23],> 100 µM
same,GI50,[24],3.98 µM
same,TGI,[24],> 100 µM
same,GI50,[25],0.447 µM
same,TGI,[25],> 100 µM
same,GI50,[26],3.23 µM
same,TGI,[26],43.1 µM
same,GI50,[27],0.346 µM
same,TGI,[27],2.6 µM
same,GI50,[28],0.895 µM
same,TGI,[28],5.54 µM
same,GI50,[29],3.3 µM
same,TGI,[29],26.7 µM
same,GI50,[30],2.12 µM
same,TGI,[30],8.3 µM
same,GI50,[31],3.72 µM
same,TGI,[31],> 100 µM
same,GI50,[32],2.79 µM
same,TGI,[32],10.7 µM
same,GI50,[33],0.2 µM
same,TGI,[33],0.566 µM
same,GI50,[34],0.649 µM
same,TGI,[34],4.58 µM
same,GI50,[35],0.607 µM
same,TGI,[35],11.1 µM
same,GI50,[36],6.38 µM
same,TGI,[36],> 100 µM
same,GI50,[37],3.28 µM
same,TGI,[37],72.9 µM
same,GI50,[38],0.69 µM
same,TGI,[38],11.5 µM
same,GI50,[39],3.06 µM
same,TGI,[39],> 100 µM
same,GI50,[40],1.96 µM
same,TGI,[40],> 100 µM
same,GI50,[41],0.935 µM
same,TGI,[41],> 100 µM
same,GI50,[42],2.67 µM
same,TGI,[42],> 100 µM
same,GI50,[43],1.2 µM
same,TGI,[43],27.2 µM
same,GI50,[44],1.23 µM
same,TGI,[44],4.55 µM
same,GI50,[45],1.54 µM
same,TGI,[45],> 100 µM
same,GI50,[46],3.26 µM
same,TGI,[46],> 100 µM
same,GI50,[47],1.73 µM
same,TGI,[47],4.36 µM
same,GI50,[48],0.741 µM
same,TGI,[48],22.8 µM
same,GI50,[49],3.16 µM
same,TGI,[49],> 100 µM
same,GI50,[50],4.22 µM
same,TGI,[50],> 100 µM
same,GI50,[51],0.74 µM
same,TGI,[51],26.9 µM
same,GI50,[52],1 µM
same,TGI,[52],> 100 µM
same,GI50,[53],2.88 µM
same,TGI,[53],> 100 µM
same,GI50,[54],6.62 µM
same,TGI,[54],> 100 µM
same,GI50,[55],4.48 µM
same,TGI,[55],> 100 µM
same,GI50,[56],3.39 µM
same,TGI,[56],86.6 µM
same,GI50,[57],5.78 µM
same,TGI,[57],> 100 µM
same,GI50,[58],0.696 µM
same,TGI,[58],> 100 µM
same,GI50,[59],2.21 µM
same,TGI,[59],> 100 µM
